The source of these data is PMC3746989 (ACS medicinal chemistry letters, 2013).

SMILES strings stand for the structures.

For series [1], the system named is PrP^Sc in RML prion-infected mouse neuroblastoma (ScN2a-cl3) cells. It counts as cell-based. The following applies: for antiprion activity: relative to the 4-bromophenyl amide 10.
The subject of the next series is ScN2a-cl3 cells. As to the kind of experiment: Cell viability / compound toxicity with fluorescent probe calcein-AM. It counts as cell-based, mouse.
Series [2] is described as follows: In vivo mouse single-dose PK, brain and plasma exposure. The following applies: for brain exposure / drug levels in brain: mice, oral dosing.
[3] abbreviates: mouse, oral 10 mg/kg, brain, relative to 21.

As to `CCOc1cccc(C(=O)Nc2ccc(N3CCN(C)CC3)cc2)c1` [Compound 8], the “antiprion activity” value in series [1] is “inactivity”.
Still for that read-out and setting: then `CN1CCN(c2ccc(NC(=O)c3cccc(Br)c3)cc2)CC1` [Compound 9], with “inactivity”.
On to `CC(=O)c1ccc(NC(=O)c2ccc(-c3ccccc3)cc2)cc1` [Compound 14], for which the “fold improvement in potency, 14 versus 6” value in series [1] is listed as 10 fold.
Regarding `CN1CCN(c2ccc(NC(=O)c3ccc(-c4ccccc4)cc3)cc2)CC1` [Compound 15], the “fold increase in antiprion potency over compound 7” value in series [1] (relative to original lead 7) is 4 fold. Also, the “Calcein AM LD50” value with ScN2a-cl3 cells is over 5000 nM.
For `CC(C)N1CCN(c2ccc(NC(=O)c3ccc(-c4ccccc4)cc3)cc2)CC1` [Compound 17], the “metabolic stability in hepatic microsomal preparations” value (“metabolic stability” for short) is listed as “excellent metabolic stability”. Also, the “Calcein AM LD50” value in the series with ScN2a-cl3 cells was >10,000 nM. Also, in series [2], the “brain exposure / drug levels in brain” value is listed as “excellent drug levels in the brains”.
For `CCN1CCN(c2ccc(NC(=O)c3ccc(-c4ccccn4)cc3)cc2)CC1` [Compound 20], the “Calcein AM LD50” value in the series on ScN2a-cl3 cells is given as >10,000 nM. In addition, the “brain exposure / drug levels in brain” value in series [2] was “excellent drug levels in the brains”. For the same compound, in series [2] (setting [3]), the “fold higher brain AUC than 21” value is reported as over 7 fold and the “fold higher brain Cmax than 21” value is over 4 fold.
Take `CCN1CCN(c2ccc(NC(=O)c3ccc(-c4cccnc4)cc3)cc2)CC1` [Compound 21]: the “Calcein AM LD50” value in the series on ScN2a-cl3 cells is given as >10,000 nM.
The same measure, in the same setting: then `CCN1CCN(c2ccc(NC(=O)c3ccc(-c4ccncc4)cc3)cc2)CC1` [Compound 22], with >10,000 nM.
For `CC(C)N1CCN(c2ccc(NC(=O)c3ccc(-c4ccccn4)cc3)cc2)CC1` [Compound 23], the “Calcein AM LD50” value with ScN2a-cl3 cells is listed as >10,000 nM. Further, in series [2], the “brain exposure / drug levels in brain” value is “much lower brain exposure than either 16 or 20”.
For the compound `CC(C)N1CCN(c2ccc(NC(=O)c3ccc(-c4ccccn4)cc3)nc2)CC1` [Compound 24], the “metabolic stability” value was “excellent metabolic stability”. For the same compound, in the series with ScN2a-cl3 cells, the “Calcein AM LD50” value is given as >10,000 nM. Besides, the “brain exposure / drug levels in brain” value in series [2] is “excellent drug levels in the brains”.
On to `CC(C)N1CCN(c2ccc(NC(=O)c3ccc(-c4ccccn4)cc3)cn2)CC1` [Compound 25], for which, in the series with ScN2a-cl3 cells, the “Calcein AM LD50” value is given as >10,000 nM.
For `CC(C)N1CCN(c2ccc(NC(=O)c3ccc(-c4ccccn4)cc3)c(F)c2)CC1` [Compound 26], the “metabolic stability” value is listed as “excellent metabolic stability”. For the same compound, in the series on ScN2a-cl3 cells, the “Calcein AM LD50” value was >10,000 nM. Moreover, the “brain exposure / drug levels in brain” value in series [2] is “excellent drug levels in the brains”.
As to `CC(C)N1CCN(c2ccc(NC(=O)c3ccc(-c4ccccn4)cc3)cc2F)CC1` [Compound 27], the “metabolic stability” value is “excellent metabolic stability”. Moreover, the “Calcein AM LD50” value in the series with ScN2a-cl3 cells was >10,000 nM. For the same compound, the “brain exposure / drug levels in brain” value in series [2] was “excellent drug levels in the brains”.
